In patent publication US20250230193A1, “CYCLIC COMPOUND HAVING SELECTIVE KRAS INHIBITORY EFFECT ON HRAS AND NRAS” (CHUGAI SEIYAKU KABUSHIKI KAISHA, priority 2022, published 2025):
Where a SMILES comes first, the peptide text is derived from it. Bridges are numbered along the chain shown (N, C = ends). [ ]: non-standard residue; d: D form. The star is where a group is joined. hPhe(3-Cl-4-CF3) = N[C@@H](CCc1ccc(C(F)(F)F)c(Cl)c1)C(=O)O; NPrPhe(4-CF3) = CCCN[C@@H](Cc1ccc(C(F)(F)F)cc1)C(=O)O; NMeGly(cPent) = CN[C@H](C(=O)O)C1CCCC1; Hyp = O=C(O)[C@@H]1C[C@@H](O)CN1; NMeL = CN[C@@H](CC(C)C)C(=O)O; Morpholide = C1CN(*)CCO1; Ac5c = NC1(C(=O)O)CCCC1; Sar = CNCC(=O)O

Experiments:
[1] = target: GDP-bound NRAS wild-type protein (Homo sapiens, UniProt P01111); experiment: Binding to NRAS by surface plasmon resonance (SPR), Single Cycle Kinetics; settings: for NRAS/KRAS (ratio of KD value with respect to NRAS to KD value with respect to KRAS): GDP-bound NRAS wild-type vs GDP-bound KRAS wild-type
[2] = target: GDP-bound HRAS wild-type protein (Homo sapiens, UniProt P01112); experiment: Binding to HRAS by surface plasmon resonance (SPR), Single Cycle Kinetics; settings: for HRAS/KRAS (ratio of KD value with respect to HRAS to KD value with respect to KRAS): GDP-bound HRAS wild-type vs GDP-bound KRAS wild-type
Sequence of GDP-bound HRAS wild-type protein (P01112 whole entry): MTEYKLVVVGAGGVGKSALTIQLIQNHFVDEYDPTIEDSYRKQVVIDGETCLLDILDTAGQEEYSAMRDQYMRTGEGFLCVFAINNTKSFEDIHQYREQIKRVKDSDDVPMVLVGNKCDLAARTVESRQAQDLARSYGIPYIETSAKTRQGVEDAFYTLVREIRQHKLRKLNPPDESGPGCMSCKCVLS

Sequence of GDP-bound NRAS wild-type protein (P01111 whole entry): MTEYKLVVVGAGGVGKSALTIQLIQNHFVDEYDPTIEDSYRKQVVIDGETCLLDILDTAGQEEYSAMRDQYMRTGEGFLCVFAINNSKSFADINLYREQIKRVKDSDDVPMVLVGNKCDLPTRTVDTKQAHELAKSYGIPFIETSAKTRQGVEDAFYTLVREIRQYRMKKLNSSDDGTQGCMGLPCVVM

Compound	NRAS/KRAS (ratio of KD value with respect to NRAS to KD value with respect to KRAS) ([1]; SPR)	HRAS/KRAS (ratio of KD value with respect to HRAS to KD value with respect to KRAS) ([2]; SPR)	also measured
C#CCN1CC(=O)N(C)[C@H]2C/C=C\CCN(C2=O)[C@@H](Cc2ccc(C)cc2)C(=O)N(C)CC(=O)N[C@@H](CCc2cc(F)c(C(F)(F)F)c(F)c2)C(=O)N2C[C@H](OCC)C[C@H]2C(=O)NC2(CC(C)(C)C2)C(=O)N(C)[C@@H](C2CCCC2)C(=O)N(C)[C@H](C(=O)N(C)C)CC(=O)N(C)[C@@H](CC(C)C)C(=O)N[C@@H]([C@@H](C)CC)C1=O [PP2052]	A (a compound having 10 or more and less than 20 is denoted as A)	A (a compound having 10 or more and less than 20 is denoted as A)	–
CCCN1C(=O)CN(C)C(=O)CNC(=O)[C@H]([C@@H](C)CC)NC(=O)[C@H](CC(C)C)N(C)C(=O)C[C@@H](C(=O)N2CCOCC2)NC(=O)[C@H](C2CCCC2)N(C)C(=O)C2(CCCC2)NC(=O)[C@@H]2C[C@@H](OCC)CN2C(=O)[C@H](CCc2ccc(C(F)(F)F)c(Cl)c2)NC(=O)CN(C)C(=O)[C@@H]1Cc1ccc(C(F)(F)F)cc1 [PP0329] ([NMeL]IG[Sar][NPrPhe(4-CF3)][Sar][hPhe(3-Cl-4-CF3)][Hyp](Et)[Ac5c][NMeGly(cPent)]D-Morpholide; lactam N-11)	–	–	NRAS/KRAS (ratio of KD for GDP-bound NRAS wild-type to KD for KRAS) ([1]; KD ratio NRAS/KRAS, SPR): B (a compound having 3 or more and less than 10 is denoted as B); HRAS/KRAS (ratio of KD for GDP-bound HRAS wild-type to KD for KRAS) ([2]; KD ratio HRAS/KRAS, SPR): C (A compound having a KD ratio of 0.1 or more and less than 3 is denoted as C)
CCO[C@@H]1C[C@H]2C(=O)NC3(CCC3)C(=O)N(C)[C@@H](C3CCCC3)C(=O)N(C)[C@H](C(=O)N(C)C)CC(=O)N(C)[C@@H](CC3CCCC3)C(=O)N[C@@H]([C@@H](C)CC)C(=O)N(C)CC(=O)N(C)[C@H]3C/C=C\CCN(C3=O)[C@@H](Cc3ccc(C(F)(F)F)cc3)C(=O)N(C)CC(=O)N[C@@H](CCc3ccc(C(F)(F)F)c(Cl)c3)C(=O)N2C1 [PP2842]	–	–	NRAS/KRAS (ratio of KD value with respect to GDP-bound NRAS wild-type protein to KD value with respect to KRAS) ([1]; KD ratio NRAS/KRAS, class symbols): A (a compound having 10 or more and less than 20 is denoted as A); HRAS/KRAS (ratio of KD value with respect to GDP-bound HRAS wild-type protein to KD value with respect to KRAS) ([2]; KD ratio HRAS/KRAS, class symbols): B (a compound having 3 or more and less than 10 is denoted as B)
CCO[C@@H]1C[C@H]2C(=O)NC3(CC(C)(C)C3)C(=O)N(C)[C@@H](C(CC)CC)C(=O)N(C)[C@H](C(=O)N(C)C)CC(=O)N(C)[C@@H](CC3CC3)C(=O)N[C@@H]([C@@H](C)CC)C(=O)N(C)CC(=O)N(C)[C@H]3C/C=C\CCN(C3=O)[C@@H](Cc3ccc(C(F)(F)F)cc3)C(=O)N(C)CC(=O)N[C@@H](CCc3ccc(C(F)(F)F)c(OC)c3)C(=O)N2C1 [PP2155]	A (a compound having 10 or more and less than 20 is denoted as A)	B (a compound having 3 or more and less than 10 is denoted as B)	–
CCCOC[C@H]1C(=O)N[C@@H]([C@@H](C)CC)C(=O)N(C)CC(=O)N(C)[C@H]2C/C=C\CCN(C2=O)[C@@H](CC2CCC(F)(F)CC2)C(=O)N(C)CC(=O)N[C@@H](CCc2ccc(C(F)(F)F)c(OC)c2)C(=O)N2C[C@H](OCC)C[C@H]2C(=O)NC2(CC(C)(C)C2)C(=O)N(C)[C@@H](C(CC)CC)C(=O)N(C)[C@H](C(=O)N(C)C)CC(=O)N1C [PP2464]	A (a compound having 10 or more and less than 20 is denoted as A)	A (a compound having 10 or more and less than 20 is denoted as A)	–
CCCOC[C@H]1C(=O)N[C@@H]([C@@H](C)CC)C(=O)N(C)CC(=O)N(C)[C@H]2C/C=C\CCN(C2=O)[C@@H](Cc2ccc(C)cc2)C(=O)N(C)CC(=O)N[C@@H](CCc2cc(F)c(C(F)(F)F)c(F)c2)C(=O)N2C[C@H](CCC)C[C@H]2C(=O)NC2(CCC2)C(=O)N(C)[C@@H](C2CCCC2)C(=O)N(C)[C@H](C(=O)N(C)C)CC(=O)N1C [PP2232]	A (a compound having 10 or more and less than 20 is denoted as A)	A (a compound having 10 or more and less than 20 is denoted as A)	–
CCC[C@H]1C(=O)N[C@@H]([C@@H](C)CC)C(=O)N(C)CC(=O)N(C)[C@H]2C/C=C\CCN(C2=O)[C@@H](Cc2ccc(C(F)(F)F)cc2)C(=O)N(C)CC(=O)N[C@@H](CCc2ccc(C(F)(F)F)c(Cl)c2)C(=O)N2CC3(CC3)C[C@H]2C(=O)NC2(CC(C)(C)C2)C(=O)N(C)[C@@H](CC(C)C)C(=O)N(C)[C@H](C(=O)N(C)C)CC(=O)N1C [PP2987]	–	–	NRAS/KRAS (ratio of KD value with respect to GDP-bound NRAS wild-type protein to KD value with respect to KRAS) ([1]; KD ratio NRAS/KRAS, SPR, GDP-bound wild-type proteins): AA (a compound having 20 or more is denoted as AA); HRAS/KRAS (ratio of KD value with respect to GDP-bound HRAS wild-type protein to KD value with respect to KRAS) ([2]; KD ratio HRAS/KRAS, SPR, GDP-bound wild-type proteins): A (a compound having 10 or more and less than 20 is denoted as A)
